In ChEMBL document CHEMBL3817761, “Chenopodium album metabolites act as dual topoisomerase inhibitors and induce apoptosis in the MCF7 cell line” (Medchemcomm, 2016):
Active and inactive are the calls of the source. No cut-off for these calls is given here.

Tests used:
[1] = system: MCF7; experiment: Cytotoxicity against human MCF7 cells assessed as reduction in cell viability after 72 hrs by MTT assay; type: functional, cell-based; conditions: MCF7, 72 h
[2] = Cytotoxicity against human SKBR3 cells assessed as reduction in cell viability after 72 hrs by MTT assay; type: functional, cell-based; conditions: SK-BR-3, 72 h
[3] = Cytotoxicity against human HCT116 cells assessed as reduction in cell viability after 72 hrs by MTT assay; type: functional, cell-based; conditions: HCT-116, 72 h
[4] = Cytotoxicity against human MOLT4 cells assessed as reduction in cell viability after 72 hrs by MTT assay; type: functional, cell-based; conditions: MOLT-4, 72 h
[5] = biological target: T1, DNA topoisomerase 1 (Homo sapiens) (UniProt P11387); experiment: Inhibition of human recombinant topoisomerase 1-mediated relaxation of supercoiled pBS (SK+) DNA at 60 uM after 30 mins by ethidium bromide staining based agarose gel electrophoresis
T1 sequence (whole entry): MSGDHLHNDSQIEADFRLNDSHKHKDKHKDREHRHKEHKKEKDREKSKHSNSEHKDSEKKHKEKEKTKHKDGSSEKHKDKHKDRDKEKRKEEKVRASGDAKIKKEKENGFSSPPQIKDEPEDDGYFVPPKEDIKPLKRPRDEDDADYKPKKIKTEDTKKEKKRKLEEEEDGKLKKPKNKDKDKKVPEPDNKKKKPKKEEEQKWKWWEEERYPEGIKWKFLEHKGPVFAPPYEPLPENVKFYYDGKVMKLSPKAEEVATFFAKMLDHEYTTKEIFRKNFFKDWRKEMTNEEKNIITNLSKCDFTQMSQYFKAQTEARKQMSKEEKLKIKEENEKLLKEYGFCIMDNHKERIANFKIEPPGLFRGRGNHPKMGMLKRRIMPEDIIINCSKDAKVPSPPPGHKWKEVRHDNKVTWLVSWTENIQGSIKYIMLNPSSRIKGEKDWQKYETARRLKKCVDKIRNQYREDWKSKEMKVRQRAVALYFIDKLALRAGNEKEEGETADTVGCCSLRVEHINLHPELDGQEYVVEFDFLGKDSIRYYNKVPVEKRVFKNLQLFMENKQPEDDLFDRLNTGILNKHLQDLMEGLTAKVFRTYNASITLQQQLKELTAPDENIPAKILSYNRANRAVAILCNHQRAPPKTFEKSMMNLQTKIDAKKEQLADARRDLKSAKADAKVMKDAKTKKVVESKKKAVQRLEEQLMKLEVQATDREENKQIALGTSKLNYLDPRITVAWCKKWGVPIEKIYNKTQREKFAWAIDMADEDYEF

[6] = biological target: DNA topoisomerase 2-alpha (Homo sapiens) (UniProt P11388); experiment: Inhibition of human recombinant topoisomerase 2-mediated relaxation of supercoiled pBS (SK+) DNA at 60 uM after 30 mins by ethidium bromide staining based agarose gel electrophoresis
Sequence of DNA topoisomerase 2-alpha (Homo sapiens) (P11388 whole entry): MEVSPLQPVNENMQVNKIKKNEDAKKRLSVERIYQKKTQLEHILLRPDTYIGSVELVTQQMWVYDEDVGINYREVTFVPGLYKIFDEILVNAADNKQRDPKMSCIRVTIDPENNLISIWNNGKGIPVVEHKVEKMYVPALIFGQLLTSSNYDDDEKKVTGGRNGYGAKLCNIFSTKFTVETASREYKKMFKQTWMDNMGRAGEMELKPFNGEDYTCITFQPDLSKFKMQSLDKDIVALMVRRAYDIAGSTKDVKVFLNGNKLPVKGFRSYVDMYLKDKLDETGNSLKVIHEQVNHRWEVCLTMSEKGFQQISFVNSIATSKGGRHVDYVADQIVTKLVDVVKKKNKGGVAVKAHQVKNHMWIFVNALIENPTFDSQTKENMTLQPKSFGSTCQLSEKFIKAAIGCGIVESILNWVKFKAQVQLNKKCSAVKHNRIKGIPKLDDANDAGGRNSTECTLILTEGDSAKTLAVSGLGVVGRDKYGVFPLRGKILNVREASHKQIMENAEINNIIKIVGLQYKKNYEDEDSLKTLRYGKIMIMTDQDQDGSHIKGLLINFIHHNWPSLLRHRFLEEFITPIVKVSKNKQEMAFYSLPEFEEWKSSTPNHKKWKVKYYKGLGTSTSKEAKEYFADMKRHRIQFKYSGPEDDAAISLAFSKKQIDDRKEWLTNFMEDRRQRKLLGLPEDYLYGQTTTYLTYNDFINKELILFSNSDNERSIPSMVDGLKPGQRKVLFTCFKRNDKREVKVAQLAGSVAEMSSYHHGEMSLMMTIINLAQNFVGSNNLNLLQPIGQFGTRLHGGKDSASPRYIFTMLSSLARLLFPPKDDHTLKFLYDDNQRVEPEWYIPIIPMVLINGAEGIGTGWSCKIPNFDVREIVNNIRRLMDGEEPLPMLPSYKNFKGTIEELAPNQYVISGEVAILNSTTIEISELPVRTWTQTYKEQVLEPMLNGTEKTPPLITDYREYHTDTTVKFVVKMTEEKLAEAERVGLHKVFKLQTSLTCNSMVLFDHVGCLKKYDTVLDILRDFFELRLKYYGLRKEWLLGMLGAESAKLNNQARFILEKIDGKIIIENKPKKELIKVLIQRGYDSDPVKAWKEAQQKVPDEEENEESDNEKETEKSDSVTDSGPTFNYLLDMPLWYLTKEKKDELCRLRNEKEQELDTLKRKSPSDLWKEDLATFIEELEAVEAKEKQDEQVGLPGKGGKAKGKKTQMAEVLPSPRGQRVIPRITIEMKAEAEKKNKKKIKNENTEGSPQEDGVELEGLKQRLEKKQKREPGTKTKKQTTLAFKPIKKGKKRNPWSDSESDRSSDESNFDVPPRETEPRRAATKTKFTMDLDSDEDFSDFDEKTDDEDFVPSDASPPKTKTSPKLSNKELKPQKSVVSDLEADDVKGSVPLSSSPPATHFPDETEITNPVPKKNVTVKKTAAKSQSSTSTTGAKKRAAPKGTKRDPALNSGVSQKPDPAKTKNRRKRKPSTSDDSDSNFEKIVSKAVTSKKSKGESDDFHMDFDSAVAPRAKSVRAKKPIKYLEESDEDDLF

[7] = biological target: T1, DNA topoisomerase 1 (Homo sapiens); experiment: Poisoning activity at human recombinant topoisomerase 1 assessed as stabilization of enzyme-supercoiled pBS (SK+) DNA complex at 60 uM after 30 mins by ethidium bromide staining based agarose gel electrophoresis
[8] = biological target: DNA topoisomerase 2-alpha (Homo sapiens) (UniProt P11388); experiment: Poisoning activity at human recombinant topoisomerase 2 assessed as stabilization of enzyme-supercoiled pBS (SK+) DNA complex at 60 uM after 30 mins by ethidium bromide staining based agarose gel electrophoresis
[9] = biological target: T1, DNA topoisomerase 1 (Homo sapiens); experiment: Poisoning activity at topoisomerase 1 in human MCF7 cells at 10 uM after 12 hrs by immunoband depletion assay; type: cell-based
[10] = biological target: DNA topoisomerase 2-alpha (Homo sapiens) (UniProt P11388); experiment: Poisoning activity at topoisomerase 2 in human MCF7 cells at 10 uM after 12 hrs by immunoband depletion assay; type: cell-based
[11] = biological target: T1, DNA topoisomerase 1 (Homo sapiens); experiment: Inhibition of CPT mediated formation of topoisomerase 1-supercoiled pBS (SK+) DNA complex in human MCF7 cells at 10 uM preincubated for 2 hrs followed by CPT addition measured after 4 to 12 hrs by immunoband depletion assay; type: cell-based
[12] = biological target: DNA topoisomerase 2-alpha (Homo sapiens) (UniProt P11388); experiment: Inhibition of ETO mediated formation of topoisomerase 2-supercoiled pBS (SK+) DNA complex in human MCF7 cells at 10 uM preincubated for 2 hrs followed by ETO addition measured after 4 to 12 hrs by immunoband depletion assay; type: cell-based
[13] = system: MCF7; experiment: Induction of apoptosis in human MCF7 cells assessed as early apoptotic cells at 8.27 uM after 48 hrs by Annexin-V-FITC/propidium iodide staining based flow cytometry (reference value: 0.4 %); type: functional
[14] = system: MCF7; experiment: Induction of mitochondrial membrane depolarization in human MCF7 cells at 8.27 uM after 48 hrs by JC-1 staining based FACS assay (reference value: 9.9 %); type: functional
[15] = system: MCF7; experiment: Induction of ROS accumulation in human MCF7 cells at 8.27 uM after 12 hrs by CM-H2-DCFDA probe based flow cytometry (reference value: 5.1 %); type: functional
[16] = system: MCF7; experiment: Cell cycle arrest in human MCF7 cells assessed as accumulation at G2/M phase at 8.27 uM after 48 hrs by propidium iodide staining based flow cytometry (reference value: 19.8 %); type: functional
[17] = system: MCF7; experiment: Induction of apoptosis in human MCF7 cells assessed as rounded cells at 8.27 uM after 24 hrs by inverted phase contrast microscopy; type: functional, cell-based
[18] = system: MCF7; experiment: Induction of mitochondrial membrane depolarization in human MCF7 cells at 8.27 uM by JC-1 staining based FACS assay; type: functional, cell-based; conditions: TDE = time-dependent effect
[19] = system: MCF7; experiment: Induction of mitochondrial membrane depolarization in human MCF7 cells assessed as ratio of red to green fluorescence at 8.27 uM after 48 hrs by JC-1 staining based FACS assay (reference value: 9.1); type: functional
[20] = system: MCF7; experiment: Induction of apoptosis in human MCF7 cells assessed as viable cells at 11.33 uM after 24 hrs by Annexin-V-FITC/propidium iodide staining based flow cytometry (reference value: 95.9 %); type: functional; conditions: MCF7, 24 h, read-out: Activity
[21] = system: MCF7; experiment: Induction of apoptosis in human MCF7 cells assessed as late apoptotic cells at 11.33 uM after 24 hrs by Annexin-V-FITC/propidium iodide staining based flow cytometry (reference value: 0.1 %); type: functional
[22] = system: MCF7; experiment: Induction of apoptosis in human MCF7 cells assessed as late apoptotic cells at 11.33 uM after 48 hrs by Annexin-V-FITC/propidium iodide staining based flow cytometry relative to control; type: functional
[23] = system: MCF7; experiment: Induction of mitochondrial membrane depolarization in human MCF7 cells at 11.33 uM after 48 hrs by JC-1 staining based FACS assay (reference value: 9.9 %); type: functional
[24] = system: MCF7; experiment: Induction of ROS accumulation in human MCF7 cells at 11.33 uM after 12 hrs by CM-H2-DCFDA probe based flow cytometry (reference value: 5.1 %); type: functional
[25] = system: MCF7; experiment: Cell cycle arrest in human MCF7 cells assessed as accumulation at G0/G1 phase at 11.33 uM after 24 hrs by propidium iodide staining based flow cytometry (reference value: 50.3 %); type: functional
[26] = system: MCF7; experiment: Cell cycle arrest in human MCF7 cells assessed as accumulation at S phase at 11.33 uM after 48 hrs by propidium iodide staining based flow cytometry (reference value: 20.6 %); type: functional
[27] = system: MCF7; experiment: Induction of mitochondrial membrane depolarization in human MCF7 cells assessed as ratio of red to green fluorescence at 11.33 uM after 24 hrs by JC-1 staining based FACS assay (reference value: 9.1); type: functional

Structure (SMILES) | IC50 [1] | IC50 [2] | IC50 [3] | IC50 [4] | inhibition [5] | inhibition [6] | Activity [7] | Activity [8] | Activity [9] | Activity [10] | inhibition [11] | inhibition [12] | also measured
C[C@@H]1CC[C@@]2(OC1)O[C@H]1C[C@H]3[C@@H]4CC[C@H]5C[C@@H](O[C@@H]6O[C@H](CO)[C@H](O[C@@H]7O[C@H](CO)[C@@H](O)[C@H](O[C@@H]8OC[C@@H](O)[C@H](O)[C@H]8O)[C@H]7O[C@@H]7O[C@H](CO)[C@@H](O)[C@H](O)[C@H]7O)[C@H](O)[C@H]6O)CC[C@]5(C)[C@H]4CC[C@]3(C)[C@H]1[C@@H]2C [DEGALACTOTIGONIN] | 8.27 µM | 9.33 µM | 15.4 µM | 11.7 µM | Active | Active | inactive | inactive | inactive | inactive | Active | Active | Activity [13]: 98.7%; Activity [14]: 69.6%; Activity [15]: 50.5%; Activity [16]: 22.5%; Activity [17]: Active; Activity [18]: tde; Ratio [19]: 0.437
CC1(C)CC[C@]2(C(=O)O)CC[C@]3(C)C(=CC[C@@H]4[C@@]5(C)CC[C@H](O[C@@H]6O[C@H](C(=O)O)[C@@H](O)[C@H](O)[C@H]6O)C(C)(C)[C@@H]5CC[C@]43C)[C@@H]2C1 | 11.3 µM | 11.9 µM | 18 µM | 13.3 µM | Active | Active | inactive | inactive | inactive | inactive | Active | Active | viability at 11.33 µM [20]: 87.5%; Activity [21]: 0.2%; Activity [22]: 1.3%; Activity [23]: 54.9%; Activity [24]: 50.4%; Activity [25]: 45.9%; Activity [26]: 47.1%; Ratio [27]: 6.14
